Values quoted from earlier work, collected in patent publication US8642030B2, “Compositions containing coenzyme Q-10 and dihydrolipoic acid” (EPC Europe GmbH, priority 2006, dated 2014).

Conditions: cited from earlier work

**Q.** With `COC1=C(OC)C(=O)C(C/C=C(\C)CC/C=C(\C)CC/C=C(\C)CC/C=C(\C)CC/C=C(\C)CC/C=C(\C)CC/C=C(\C)CC/C=C(\C)CC/C=C(\C)CCC=C(C)C)=C(C)C1=O` [CoQ-10] as the compound, how does the “solubility in most hydrophilic solvents such as water” value read?
**A.** sparingly soluble
